According to patent US7091351B2, “Vanadium compounds for treating cancer” (Parker Hughes Institute, priority 1998, dated 2006):
Read-outs that look alike come from different tables or passages of the source.

Experiments:
Assay type in all cases: cell-based, human
NALM-6 cells = assay: MTT cytotoxicity assay of oxovanadium(IV) compounds, NALM-6; conditions: 48 hr
Experimental: (§1) The cytotoxicity of oxovanadium (W) complexes listed in Table 6 were tested against 9 different human cancer cell lines was performed using the MTT (3-[4,5-dimethylthiazol-2-yl]-2,5-diphenyl tetrazolium bromide) assay (Boehringer Mannheim Corp., Indianapolis, Ind.) as described previously (20). Briefly, exponentially growing tumor cells were seeded into a 96-well plate at a density of 4×10^4cells/well and incubated with medium containing the oxovanadium(IV) compounds concentrations ranging from 0.1 to 250 μM for 48 hours at 37° C. in a humidified 5% CO2 atmosphere. Triplicate wells were used for each treatment. To each well, 10 μl of MTT (0.5 mg/ml final concentration) was added and the plates were incubated at 37° C. for 4 hours to allow MTT to form formazan crystals by reacting with metabolically active cells . The formazan crystals were solubilized overnight at 37° C. in a solution containing 10% SDS in 0.01 M HCl. The absorbence of each well was measured in a microplate reader (Labsystems) at 540 nm and a reference wavelength of 690 nm. To translate the OD540 values into the number of live cells in each well, the OD540 values were compared to those on standard OD540—versus—cell number curves generated for each cell line. The percent survival was calculated using the formula: % survival=Live cell number[test]/Live cell number [control]×100. The IC50 values were calculated by non-linear regression analysis using an Graphpad Prism software version 2.0 (Graphpad Software, Inc., San Diego, Calif.).

MOLT-3 cells = assay: MTT cytotoxicity assay of oxovanadium(IV) compounds, MOLT-3; conditions: 48 hr
Experimental: as §1

[1] = test system: HS445 Hodgkin's lymphoma cells; assay: MTT cytotoxicity assay of oxovanadium(IV) compounds, HS445; conditions: 48 hr
Experimental: as §1

HL-60 cells = assay: MTT cytotoxicity assay of oxovanadium(IV) compounds, HL-60; conditions: 48 hr
Experimental: as §1

[2] = test system: U266BL multiple myeloma cells; assay: MTT cytotoxicity assay of oxovanadium(IV) compounds, U266BL; conditions: 48 hr
Experimental: as §1

[3] = test system: ARH77 multiple myeloma cells; assay: MTT cytotoxicity assay of oxovanadium(IV) compounds, ARH77; conditions: 48 hr
Experimental: as §1, with “Briefly, exponentially growing tumor cells were seeded into a 96-well plate at a density of 4×10^4cells/well and incubated with medium containing the oxovanadium(IV) compounds concentrations ranging from 0.1 to 250 μM for 48 hours at 37° C. in a humidified 5% CO2 atmosphere.” left out

[4] = test system: HS-SULTAN multiple myeloma cells; assay: MTT cytotoxicity assay of oxovanadium(IV) compounds, HS-SULTAN; conditions: 48 hr
Experimental: as §1

[5] = test system: 833-K testicular cancer cells; assay: Cytotoxic activity of oxovanadium(IV) compounds, 833-K
Experimental: as §1

[6] = test system: 64cp5 testicular cancer cells; assay: Cytotoxic activity of oxovanadium(IV) compounds, 64cp5
Experimental: as §1

[7] = test system: Tera-2 testicular cancer cells; assay: Cytotoxic activity of oxovanadium(IV) compounds, TERA-2
Experimental: as §1

[8] = test system: NTD1 testicular cancer cells; assay: Cytotoxic activity of oxovanadium(IV) compounds, NTD1
Experimental: as §1

U373 glioblastoma cells = assay: Cytotoxic activity of oxovanadium(IV) compounds, U373
Experimental: as §1

BT20 breast cancer cells = assay: Cytotoxic activity of oxovanadium(IV) compounds, BT20
Experimental: as §1

[9] = test system: PC3 prostate cancer cells; assay: Cytotoxic activity of oxovanadium(IV) compounds, PC3
Experimental: as §1

[10] = read-out: Cytotoxic Activity 833-K
[11] = read-out: Cytotoxic Activity 64cp5
[12] = read-out: Cytotoxic Activity TERA-2
[13] = read-out: Cytotoxic Activity NTD1
[14] = read-out: Cytotoxic Activity U373
[15] = read-out: Cytotoxic Activity BT20
[16] = read-out: Cytotoxic Activity PC3

Molecule	IC50 (NALM-6 cells) [µM]	IC50 (MOLT-3 cells) [µM]	IC50 [1] [µM]	IC50 (HL-60 cells) [µM]	IC50 [2] [µM]	IC50 [3] [µM]	IC50 [4] [µM]	IC50 [5, 10] [µM]	IC50 [6, 11] [µM]	IC50 [7, 12] [µM]	IC50 [8, 13] [µM]	IC50 (U373 glioblastoma cells; [14]) [µM]	IC50 (BT20 breast cancer cells; [15]) [µM]	IC50 [9, 16] [µM]	also measured
(diaqua)(4,4′-dimethyl-2,2′-bipyridyl)oxovanadium(IV) sulfate [Compound 36]	8.5 ± 0.5	8.2 ± 0.5	27.8 ± 3.4	38.6 ± 4.5	38.4 ± 3.2	> 100	65.1 ± 6.1	> 100	> 100	> 100	> 100	> 100	> 100		
bis(5-chloro-1,10-phenanthroline)sulfatooxovanadium(IV) [Compound 31]	1.6 ± 0.03	2.1 ± 0.2	5.2 ± 1.1	5.3 ± 1.8	3.7 ± 1.1		5.8 ± 0.6	4.6	> 100	24.2	50.1	6.3	5.4	4.6	
(diaqua)(5-nitro-1,10-phenanthroline)oxovanadium(IV) sulfate [Compound 32]	4.1 ± 0.4	2.3 ± 0.3	9.1 ± 2.5	4.9 ± 1.2	18.1 ± 5.1	5.4 ± 1.5	14.5 ± 2.5	11.5	25.4	7.2	20.2	20.5	13.7	12.9	
bis(5-nitro-1,10-phenanthroline)sulfatooxovanadium(IV) [Compound 33]	0.7 ± 0.01	1.4 ± 0.06	2.3 ± 0.6	2.6 ± 0.4	7.2 ± 1.1	5.7 ± 1.3	13.8 ± 3.6	1.1	5.9	2.6	9.1	7.2	5.6	6.1	
bis(2,2′-bipyrimidine)sulfatooxovanadium(IV) [Compound 39]	12.2 ± 2.3	35.1 ± 4.7	98.4 ± 9.1	> 100	99.1 ± 8.1	> 100	> 100	> 100	> 100	> 100	> 100	> 100	> 100		
(diaqua) (1,10-phenanthroline)oxovanadium(IV) sulfate [Compound 26]	3.4 ± 0.2	2.7 ± 0.2	6.3 ± 1.8	3.2 ± 1.1	3.5 ± 0.5	15.6 ± 3.2	11.2 ± 2.2	12.8	8.5	> 100	> 100	7.7	6.6	11.2	
(diaqua)(5-chloro-1,10-phenanthroline)oxovanadium(IV) sulfate [Compound 30]	3.6 ± 0.07	3.4 ± 0.03	7.5 ± 2.5	15.3 ± 4.9	8.5 ± 1.2	30.3 ± 5.6	9.9 ± 5.4	12.8	10.9	18.1	> 100	22.4	18.2	12.4	
bis(2,2′-bipyridyl)sulfatooxovanadium(IV) [Compound 35]	15.5 ± 3.8	14.2 ± 3.8	21.6 ± 4.3	31.4 ± 6.9	32.1 ± 5.2	26.8 ± 5.4	35.4 ± 3.3	96.2	> 100	> 100	> 100	> 100	70.8	56.2	
(diaqua)(2,2′-bipyrimidine)oxovanadium(IV) sulfate [Compound 38]	12.1 ± 1.6	27.7 ± 2.5	96.5 ± 8.6	> 100	91.2 ± 9.9	> 100	> 100	> 100	> 100	74.3	> 100	> 100	> 100		
CC(=O)c1cc(Br)ccc1[O][V](=[O])[O]c1ccc(Br)cc1C(C)=O [Compound 40, bis(5′-bromo-2′-hydroxyacetophenone)oxovanadium(IV)]	17.4 ± 0.9	41.8 ± 3.9	96.5 ± 6.4	> 100	98.1 ± 6.7	> 100	78.4 ± 5.8	> 100	> 100	35.4	> 100	> 100	> 100		
bis(4,4′-dimethyl-2,2′-bipyridyl) sulfatooxovanadium(IV) [Compound 37]	3.9 ± 0.3	4.8 ± 0.3	12.6 ± 3.3	28.4 ± 3.8	13.3 ± 5.1	58.3 ± 6.8	11.4 ± 2.2	34.9	> 100	> 100	> 100	25.6	15.7		
(diaqua)(2,2′ bipyridyl)oxovanadium(IV) sulfate [Compound 34]	14.9 ± 0.6	13.1 ± 1.1	41.7 ± 5.4	> 100	30.4 ± 7.8	> 100	62.8 ± 2.3								IC50 [5]: > 100 µM; IC50 [6]: > 100 µM; IC50 [7]: > 100 µM; IC50 [8]: > 100 µM; IC50 (U373 glioblastoma cells): 58.4 µM; IC50 (BT20 breast cancer cells): 51.2 µM; IC50 [9]: 55.8 µM
bis(1,10-phenanthroline)sulfatooxovanadium(IV) [Compound 27]	0.97 ± 0.1	1.4 ± 0.04	5.8 ± 1.2	4.6 ± 1.4	2.2 ± 0.6	3.3 ± 0.8	4.4 ± 0.8	7.5	18.5	37.6	> 100	6.8	7.2	10.8	
